pEC50, pKi: −log10 of the molar value. Like-named read-outs stand apart in the source and are kept apart here.
How the values were obtained:
human CB1 receptor [1] = target: T1, human CB1 receptor (Homo sapiens, UniProt P21554); test: Human CB1 receptor binding, [3H] CP-55,940 displacement on HEK cell membranes; parameters: expressed in transfected cells; host or cells: HEK cells, doxycycline-induced; membrane preparation
Outline: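 Radioligand displacement: [3H] CP-55,940 at […] final, 1 μg membrane protein per well from HEK cells with tetracycline-inducible human CB1, 60 min at room temperature, pH 7.4 Tris/NaCl/MgCl2/EGTA/BSA buffer. 50 μM WIN-55,212-2 set nonspecific binding; bound label filtered, counted, and fitted for EC50 and Ki values.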

human CB1 receptor [2] = target: T1, human CB1 receptor; test: [35S] GTPγS binding on membranes of CHO cells expressing the human CB1 receptor (agonism); assay type: biochemical; parameters: expressed in transfected cells; membrane preparation
Outline: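 Membranes from human CB1-expressing CHO cells (5 μg/well) incubated with test compound and [35S]GTPγS in 50 mM Tris pH 7.4, 100 mM NaCl, 3 mM MgCl2, 0.2 mM EGTA, 0.04% BSA for 45 min at 37 °C. Bound label collected by filtration, scintillation counted; EC50 from curve fits.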

[3] = GTPγS EC50, human CB1, CHO cell membranes
[4] = human CB1, CHO cell membranes, read-out: GTPγS EC50

T1 sequence (P21554 whole entry): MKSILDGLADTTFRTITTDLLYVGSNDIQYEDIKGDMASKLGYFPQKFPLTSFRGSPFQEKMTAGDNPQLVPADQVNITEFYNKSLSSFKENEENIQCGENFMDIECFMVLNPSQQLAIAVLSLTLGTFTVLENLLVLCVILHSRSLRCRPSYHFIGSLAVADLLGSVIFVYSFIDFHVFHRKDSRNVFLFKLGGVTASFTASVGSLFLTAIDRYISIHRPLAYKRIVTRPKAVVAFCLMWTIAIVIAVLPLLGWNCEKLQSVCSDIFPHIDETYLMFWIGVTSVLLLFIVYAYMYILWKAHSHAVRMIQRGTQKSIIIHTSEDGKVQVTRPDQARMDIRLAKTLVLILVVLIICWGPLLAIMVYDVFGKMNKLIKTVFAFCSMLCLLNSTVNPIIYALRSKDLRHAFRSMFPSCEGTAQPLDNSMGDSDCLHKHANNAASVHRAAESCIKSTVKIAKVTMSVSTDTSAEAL

Row | SMILES | pKi (human CB1 receptor [1]; CB1 Ki) | pEC50 (human CB1 receptor [2]; [3]) | pKi (human CB1 receptor [1]; read-out: CB1 Ki) | pEC50 (human CB1 receptor [2]; [4])
1 | CC(C)(C)[C@H](NC(=O)c1nn(Cc2ccc(C#N)cc2)c2cc(F)ccc12)C(=O)NC1CC1 [Example 299] | 8.07 | 7.62 |  | 
2 | CC(C)(C)C(NC(=O)c1nn(Cc2ccccc2)c2ccccc12)C(=O)NCCNC(N)=O (stereo not shown) [Example 83] | 7.82 | 6.14 |  | 
3 | CC(C)(C)[C@H](NC(=O)c1nn(Cc2ccc(F)cc2F)c2ccccc12)C(=O)NCCC(N)=O [Example 472] | 7.71 | 7.28 |  | 
4 | CC(C)(C)[C@H](NC(=O)c1nn(Cc2ccc(C#N)cc2)c2c(F)cccc12)C(=O)N1CC(O)C1 [Example 214] | 8.41 | 7.63 |  | 
5 | CC(C)(C)[C@H](NC(=O)c1nn(Cc2ccc(C#N)cc2F)c2c(F)c(F)ccc12)C(=O)NC1CC1 [Example 374] | 8.13 | 7.90 |  | 
6 | CC(C)(C)C(NC(=O)c1nn(Cc2ccc(F)cc2)c2ccc(F)cc12)C(N)=O (stereo not shown) [Example 170] | 9.57 | 9.15 |  | 
7 | CC(C)(C)[C@H](NC(=O)c1nn(Cc2ccc(C#N)cc2F)c2c(F)cccc12)C(N)=O [Example 368] | 8.70 | 8.34 |  | 
8 | CC(C)(C)[C@H](NC(=O)c1nn(Cc2ccc(F)cc2)c2ccccc12)C(=O)N1CCC(F)(CO)CC1 [Example 337] |  |  | 8.46 | 7.68
9 | CC(C)(C)C(NC(=O)c1nn(Cc2ccc(F)cc2)c2ccc(F)cc12)C(=O)NC1CC1 (stereo not shown) [Example 171] | 9.38 | 9.36 |  | 
10 | CC(C)(C)[C@H](NC(=O)c1nn(Cc2ccc(F)cc2)c2ccccc12)C(=O)NCC(=O)Nc1ccccn1 [Example 520] |  |  | 8.73 | 8.00
11 | CC(C)(C)C(NC(=O)c1nn(Cc2ccc(F)cc2)c2ccc(F)cc12)C(=O)NCCO (stereo not shown) [Example 172] | 9.38 | 9.38 |  | 
12 | CC(C)(C)C(NC(=O)c1nn(Cc2ccc(F)cc2)c2c(F)cccc12)C(=O)NCC(N)=O (stereo not shown) [Example 179] | 9.06 | 8.27 |  | 
13 | CC(C)(C)C(NC(=O)c1nn(Cc2ccc(F)cc2)c2c(F)cccc12)C(=O)NC1CC1 (stereo not shown) [Example 176] | 9.66 | 9.29 |  | 
14 | CC(C)(C)C(NC(=O)c1nn(Cc2ccc(C#N)cc2F)c2ccccc12)c1nnc(NC(=O)C2CC2)o1 (stereo not shown) [Example 88] |  |  | 7.81 | 6.88
15 | CC(C)(C)[C@H](NC(=O)c1nn(Cc2ccc(F)cc2)c2ccccc12)C(=O)NCc1nnc(C(=O)NCCO)o1 [Example 462] |  |  | 8.64 | 7.89
16 | CC(C)(C)[C@H](NC(=O)c1nn(Cc2ccc(F)cc2)c2ccccc12)C(=O)N[C@@H]1CNC(=O)C1 [Example 459] | 8.56 | 7.75 |  | 
17 | CC(C)(C)[C@H](NC(=O)c1nn(Cc2ccc(F)cc2)c2c(F)c(F)ccc12)C(=O)NCCS(N)(=O)=O [Example 327] | 8.38 | 7.74 |  | 
18 | CC(C)(C)C(NC(=O)c1nn(Cc2ccc(C#N)cc2)c2c(Cl)cccc12)C(=O)NCC(O)CO (stereo not shown) [Example 203] | 7.99 | 7.20 |  | 
19 | CCOC(=O)[C@H]1C[C@@H](NC(=O)[C@@H](NC(=O)c2nn(Cc3ccc(F)cc3)c3ccccc23)C(C)(C)C)C1 [Example 381] |  |  | 7.82 | 7.57
20 | CC(C)(C)C(NC(=O)c1nn(Cc2ccc(C#N)cc2)c2c(Cl)cccc12)C(=O)NCCO (stereo not shown) [Example 199] | 8.88 | 8.05 |  | 
21 | CC(C)(C)C(NC(=O)c1nn(Cc2ccc(F)cc2)c2ccccc12)C(=O)NCC(O)CO (stereo not shown) [Example 77] | 8.27 | 7.32 |  | 
22 | CC(C)(C)C(NC(=O)c1nn(Cc2ccc(F)cc2)c2ccccc12)C(=O)NCCc1nnc(C2CC2)o1 (stereo not shown) [Example 148] |  |  | 8.74 | 7.49
23 | Cc1nc(CNC(=O)[C@@H](NC(=O)c2nn(Cc3ccc(F)cc3)c3ccccc23)C(C)(C)C)nn1C [Example 421] |  |  | 8.54 | 7.76
24 | CC(C)(C)[C@H](NC(=O)c1nn(Cc2ccc(C#N)cc2)c2c(F)cccc12)C(=O)NCCCO [Example 109] | 8.09 | 6.96 |  | 

Row | SMILES | pKi (human CB1 receptor [1]; CB1 Ki) | pEC50 (human CB1 receptor [2]; [3]) | pKi (human CB1 receptor [1]; read-out: CB1 Ki) | pEC50 (human CB1 receptor [2]; [4])
25 | CC(C)(C)[C@H](NC(=O)c1nn(Cc2ccc(F)cc2)c2ccccc12)C(=O)N1CCOC(CO)C1 (stereo partly shown) [Example 249] | 8.60 | 7.79 |  | 
26 | CC(C)(C)C(NC(=O)c1nn(Cc2cccc(F)c2)c2ccccc12)C(N)=O (stereo not shown) [Example 19] | 8.59 | 7.69 |  | 
27 | CC(C)(C)[C@H](NC(=O)c1nn(Cc2ccc(F)cc2)c2ccccc12)C(=O)NC[C@H]1C[C@@H]1CO [Example 488] | 8.25 | 7.67 |  | 
28 | CC(C)(C)[C@H](NC(=O)c1nn(Cc2ccc(F)cc2)c2ccccc12)C(=O)NCCN1CCCC1=O [Example 499] |  |  | 7.74 | 6.69
29 | CC(C)(C)C(NC(=O)c1nn(Cc2ccccc2)c2ccccc12)C(=O)NCCNS(=O)(=O)C1CC1 (stereo not shown) [Example 96] |  |  | 8.93 | 7.77
30 | CC(C)(C)[C@H](NC(=O)c1nn(Cc2ccccc2)c2ncccc12)C(N)=O [Example 12, N-[(1S)-1-(aminocarbonyl)-2,2-dimethylpropyl]-1-benzyl-1H-pyrazolo[3,4-b]pyridine-3-carboxamide] | 7.94 | 6.52 |  | 
31 | CC(C)(C)[C@H](NC(=O)c1nn(Cc2ccc(F)cc2)c2ccccc12)C(=O)N1CCOCC1 [Example 242] | 9.44 | 8.47 |  | 
32 | NC(=O)[C@@H](NC(=O)c1nn(Cc2ccc(F)cc2)c2ccccc12)c1ccccc1 [Example 3, N-[(1S)-2-amino-2-oxo-1-phenylethyl]-1-(4-fluorobenzyl)-1H-indazole-3-carboxamide] | 7.30 | 6.53 |  | 
33 | Cc1cc2c(C(=O)N[C@H](C(=O)NCc3nnc(C(N)=O)o3)C(C)(C)C)nn(Cc3ccc(F)cc3)c2cc1F [Example 508] |  |  | 8.57 | 7.79
34 | CC(C)(C)[C@H](NC(=O)c1nn(Cc2ccc(F)cc2)c2c(F)c(F)ccc12)C(=O)NCCO [Example 324] | 9.82 | 8.59 |  | 
35 | CC(C)(C)C(NC(=O)c1nn(Cc2ccc(C#N)cc2F)c2ccccc12)C(=O)NC1CC1 (stereo not shown) [Example 87] | 8.65 | 7.34 |  | 
36 | CC(C)(C)[C@H](NC(=O)c1nn(Cc2ccccc2)c2ccccc12)C(=O)NCCNS(=O)(=O)c1ccc(C#N)cc1 [Example 263] |  |  | 8.08 | 7.00
37 | CC(C)NC(=O)CNC(=O)[C@@H](NC(=O)c1nn(Cc2ccc(F)cc2)c2ccccc12)C(C)(C)C [Example 493] | 9.02 | 8.00 |  | 
38 | CC(C)(C)C(NC(=O)c1nn(Cc2ccc(C#N)cc2)c2c(Cl)cccc12)C(=O)NC1CC1 (stereo not shown) [Example 198] | 8.92 | 8.15 |  | 
39 | Cc1nnc(CNC(=O)[C@@H](NC(=O)c2nn(Cc3ccc(F)cc3)c3ccccc23)C(C)(C)C)o1 [Example 126] | 9.01 | 8.59 |  | 
40 | CC(C)(C)[C@H](NC(=O)c1nn(Cc2ccc(C#N)cc2)c2c(F)cccc12)C(=O)NCC(F)(F)F [Example 309] | 8.80 | 8.59 |  | 
41 | CC(C)(C)[C@H](NC(=O)c1nn(Cc2ccc(F)cc2)c2c(Cl)cccc12)C(=O)NCCNS(=O)(=O)C1CC1 [Example 187] |  |  | 10.05 | 8.96
42 | CC(C)(C)C(NC(=O)c1nn(Cc2ccc(F)cc2)c2ccccc12)c1nnc(NC(=O)C2CC2)o1 (stereo not shown) [Example 78] |  |  | 9.23 | 8.54
43 | CC(C)(C)C(NC(=O)c1nn(Cc2ccc(F)cc2)c2ccccc12)C(=O)NCC(N)=O (stereo not shown) [Example 82] | 8.95 | 7.66 |  | 
44 | CC(C)(C)C(NC(=O)c1nn(Cc2ccc(F)cc2)c2ccccc12)C(=O)N1CCC(O)C1 (stereo not shown) [Example 151] | 8.79 | 8.20 |  | 
45 | CC(C)[C@H](NC(=O)c1nn(Cc2ccc(F)cc2)c2ccccc12)C(N)=O [Example 2, N-[(1S)-1-(aminocarbonyl)-2-methylpropyl]-1-(4-fluorobenzyl)-1H-indazole-3-carboxamide] | 9.05 | 7.63 |  | 
46 | CC(C)(C)[C@H](NC(=O)c1nn(Cc2ccc(F)cc2)c2ccccc12)C(=O)NCCC#N [Example 271] | 8.54 | 7.60 |  | 
47 | CC(C)(C)[C@H](NC(=O)c1nn(Cc2ccc(F)cc2)c2ccccc12)C(=O)NCC(=O)Nc1nncs1 [Example 519] |  |  | 9.02 | 8.24
